Measurements reported in patent US9149034B2, “Agrochemical formulations comprising co-polymers based on diisocyanates” (BASF SE, priority 2006, dated 2015).

Experiments:
[1] = Leaf uptake of radioactively marked boscalid applied dropwise to leaves of wheat plants; details: in vivo, 168 h
Procedure: To test the leaf uptake with polymers water/DMF solutions with radioactively marked boscalid (1 μl cold active solution (10000 ppm solution in DMF), 10 μl hot active solution (0.1 ppm in DMF, ˜2000000 counts/μl), 9 μl polymer solution (1000 ppm solution in water) and 80 μl DMF) were applied dropwise to the leaves of a wheat plants (10 drops per leap. After 48 and 168 hours respectively. The leaves were cut off after the respective time and the excess active on the leaf surface eliminated by stripping the leaf with a cellulose acetate film. The leaves were then dissolved with Soluene 350 to determine the absolute amount of active ingredient that was taken up into the plant. As reference the active was applied in water/DMF solution without polymer.

[2] = Root uptake test with radioactively marked boscalid, drench of wheat plants in vermiculite; details: in vivo, 120 h
Procedure: To test the root systemicity of the ai, radioactively marked boscalid (prepared in analogy to EP 0545099 based on ^14C marked pyridin) was used. For the tests wheat plants in vermiculite were drenched with boscalid/polymer solutions in water/acetone mixtures. As reference boscalid solutions in water/acetone mixtures without polymers were used [25 μl cold active solution (10000 ppm stock solution in acetone), 20 μl hot active solution (0.1 ppm in acetone, 1 μl corresponds to ˜22000 Bcq), 25 μl acetone and 25 μl polymer solution (10000 ppm stock solution in water) were mixed and refilled with water to 10 ml. After 48 and 120 hours leafs were cut from the plant and dissolved in Soluene 350 (60-80% toluene, 20-40% dodecyl(dimethyl)(tetradecyl)ammonium hydroxide, 2.5-10% methanol). Afterwards the radioactivity in the plant material was measured. High radioactivity in the plant material corresponds to high active ingredient uptake.

[3] = tested on: Alteria, ALTESO P6 (Bayer); assay: Test with pathogenes: tomatoe plants in Hoagland solution with boscalid or boscalid/polymer, infested with fungus; format: in vivo; details: for Infestation Rating: Table 3 experiment, untreated = 100%; for Rating (infestation): Table 4 experiment
From the text: To test the polymers with the actual pathogenes, tomatoe plants were directly grown in hoagland solution. Hoagland solution consists of the following ingredients 0.25 v % of 1M KNO3 solution in water, 0.1 v % of 1M MgSO4 solution in water, 0.05 v % of 1M KH2PO4 solution in water, 0.25 v % 1M Ca(NO3)2) solution in water, 0.05 v % of a trace solution consisting of 2.86 g/l H3BO3, 1.81 g/l MnCl2*4H2O, 0.22 g/l ZnSO4*7H2O, 0.08 g/l CuSO4*5H2O, 0.016 g/l MoO3 in water, 0.075 v % Sequestrene 138 Fe consisting of 30 g/l sodium ferric ethylenediamine di-(o-hydroxyphenylacetate) in water, 99.225 v % water sterilized and pH adjusted to 6-6.5 with NaOH.
After 16 days the plants were transfered to containers with 240 ml boscalid or boscalid/polymer (the ratio boscalid/polymer is 1:1 per weight) solutions (1.3, 0.43, 0.14 and 0.05 ppm) in Hoagland solution containing 0.8 vol % acetone. 6 days after the ai application the plants were infested with fungus (Alteria, ALTESO P6 (Bayer)). After 5 additional days the infestation was rated (column “Infestation Rating”) and plants that had not been treated with ai were used as reference for 100% infestation.
Two separate experiments were performed. In one test, polymers A and B were tested (see table 3), in the other experiment, polymers C and F were tested (see table 4).

[4] = 0.05 ppm active (or polymer/active 1:1)
[5] = 0.14 ppm active (or polymer/active 1:1)
[6] = 0.43 ppm active (or polymer/active 1:1)

O=C(Nc1ccccc1-c1ccc(Cl)cc1)c1cccnc1Cl [Reference without polymer, boscalid]
Uptake [% applied] [1]: 1.3 % applied | Uptake (radioactivity in leaf material, active ingredient uptake) [2]: 219 Bcq | Infestation Rating [3, 4]: 77% | Infestation Rating [3, 5]: 60% | Infestation Rating [3, 6]: 13% | Infestation Rating ([3]; 1.3 ppm active (or polymer/active 1:1), rated 5 days after infestation): 1% | Rating (infestation) [3, 4]: 53% | Rating (infestation) [3, 5]: 47% | Rating (infestation) [3, 6]: 17% | Rating (infestation) ([3]; 1.3 ppm active (or polymer/active 1:1)): 0%
